Legend:
receptor EGFP-NK2R [1] = target: T1, receptor EGFP-NK2R (UniProt P16610); test: Dissociation kinetics of NKA-Bo bound to EGFP-NK2R by fluorescence energy transfer; format: binding; design: % al (max): maximum value observed for the increase in amplitude of the rapid dissociation rate; ns = n; other: 20 nM of NK; % al (at 10 μM); other: compou; fused on or other part: EGFP fused to the receptor as FRET donor; details: for % al (at 10 μM): compound 10 μM, T = 22 ± 1 is amplitude of rapid dissociation in the absence of effector; for EC50 (μM): concentration of compound causing a 50% increase (relative to the maximum value) in the percentage of the amplitude of the rapid dissociation rate / % al (max): maximum value observed for the increase in amplitude of the rapid dissociation rate / EC50: Table 1, ns = not significant; for EC50 (μM): concentration of compound causing a 50% increase (relative to the maximum value) in the percentage of the amplitude of the rapid dissociation rate / EC50: dissociation of NKA-Bo from EGFP-NK2R; for EC50: read-out: EC50 (μM): concentration of compound causing a 50% increase (relative to the maximum value) in the percentage of the amplitude of the rapid dissociation rate
T1 sequence (P16610 1-390): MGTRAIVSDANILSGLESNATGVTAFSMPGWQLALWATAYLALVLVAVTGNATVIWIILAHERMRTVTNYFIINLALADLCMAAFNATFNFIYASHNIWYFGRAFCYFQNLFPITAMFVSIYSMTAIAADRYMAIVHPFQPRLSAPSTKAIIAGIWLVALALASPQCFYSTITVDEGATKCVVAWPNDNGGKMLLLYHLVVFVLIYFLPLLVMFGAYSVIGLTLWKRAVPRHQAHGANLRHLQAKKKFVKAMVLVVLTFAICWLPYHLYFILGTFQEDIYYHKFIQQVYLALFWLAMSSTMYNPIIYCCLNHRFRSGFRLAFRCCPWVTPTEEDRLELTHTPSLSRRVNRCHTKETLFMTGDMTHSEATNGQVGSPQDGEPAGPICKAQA
Description: Dissociation (FIG. 4B): HEK 293 cells expressing the receptor EGFP-NK2R are put into suspension at a concentration of 1,000,000 cells/ml in Hepes physiological buffer (in mM: 137.5 NaCl; 1.25 MgCl2; 1.25 CaCl2; 6 KCl; 5.6 glucose; 10 Hepes; 0.4 NaH2PO4; 1% BSA (w/v); pH 7.4) and arranged in a 1 ml cuvette equipped with a magnetic stirrer on the cuvette holder of a SPEX fluorolog 3 spectrofluorimeter.
(§1) The amplitude of each relaxation is then given by the adjustment of the experimental traces.

receptor EGFP-NK2R [2] = target: T1, receptor EGFP-NK2R; test: Reversion of the binding of NKA-Bo to EGFP-NK2R by fluorescence energy transfer; design: % al (max): maximum value observed for the increase in amplitude of the rapid dissociation rate; ns = n; other: 20 nM of NK; % al (at 10 μM); other: compou; fused on or other part: EGFP fused to the receptor as FRET donor; details: for % bond reversion (at 10 μM): compound 10 μM; for IC50: read-out: IC50 (μM): concentration of compound for which a 50% reduction is observed in the binding of NKA-Bo, 20 nM of NKA-Bo, EGFP-NK2R receptor
Description: as §1

[3] = tested on: cells not expressing the EGFP-NK2R receptor; test: Calcium response on cells not expressing the receptor; format: cell-based; design: key: ns: not significant; ?: uniterpretable; details: Table 1
[4] = in the presence of 50 μM compound, dissociation by non-fluorescent NKA

% al (at 10 μM) (receptor EGFP-NK2R [1]) | % bond reversion (at 10 μM) (receptor EGFP-NK2R [2]) | % al (max): maximum value observed for the increase in amplitude of the rapid dissociation rate (receptor EGFP-NK2R [1]) | IC50 (receptor EGFP-NK2R [2]) | EC50 (receptor EGFP-NK2R [1]) | Compound | Ca Rep.: ability to evoke a calcium response on cells not expressing the EGFP-NK2R receptor [3] | further results
26% | 3% | – | – | – | N#CCN(Cc1ccc(Br)cc1)Cc1ccc2ccccc2c1 [CV1-93, [4-bromobenzyl(2-naphthylmethyl)amino]acetonitrile] | – | –
34% | 15% | – | – | – | N#CCN(Cc1ccccc1)Cc1cccc(Cl)c1Cl [CV1-97] | – | –
– | – | ns | > 50 µM | – | Cc1ccc(NC(CC(=O)c2ccccc2)c2ccccc2)nc1 (stereo not drawn) [F9, 3-(5-Methyl-pyridin-2-ylamino)-1,3-diphenyl-propan-1-one] | – | EC50 (μM): concentration of compound causing a 50% increase (relative to the maximum value) in the percentage of the amplitude of the rapid dissociation rate (receptor EGFP-NK2R [1]): ns
– | – | 60-70% | 110 µM | 5 to 10 µM | N#CCN(Cc1ccc(Cl)cc1)Cc1ccc2ccccc2c1 [NP234 or 801, [(4-chlorobenzyl)(2-naphthylmethyl)amino]acetonitrile] | ns | –
31% | 17% | – | – | – | N#CCN(Cc1ccccc1)Cc1ccc(Cl)cc1 [CV1-122] | – | –
– | – | 60-70% | > 500 µM | 10 to 30 µM | N#CCN(Cc1ccc(Cl)c(Cl)c1)Cc1ccc2ccccc2c1 [NP246 or 803, [(3,4-dichlorobenzyl)(2-naphthylmethyl)amino]acetonitrile] | ns | fraction of receptors in the low-affinity state (receptor EGFP-NK2R [1]; at 100 μM of effector, approximately 25% in the absence of effector): ~100%
– | – | >60% | ≥ 100 µM | > 50 µM | NC(=O)CN(Cc1ccc2ccccc2c1)c1ccccc1 [H10, 2-(Naphthalen-2-ylmethyl-phenyl-amino)-acetamide] | ns | –
– | – | 65% | – | 1 to 5 µM | c1ccc(CNc2ncc(-c3ccccc3)s2)cc1 [F3, Benzyl-(5-phenyl-thiazol-2-yl)-amine] | – | –
– | – | ns | 46 µM | – | NCCCC(NC(=O)c1ccccc1)C(=O)NC(Cc1ccccc1)C(N)=O (stereo not drawn) [G6, N-(4-amino-1-(1-carbamoyl-2-phenyl-ethylcarbamoyl)-butyl)-benzamide] | – | EC50 (μM): concentration of compound causing a 50% increase (relative to the maximum value) in the percentage of the amplitude of the rapid dissociation rate (receptor EGFP-NK2R [1]): ns; effect on the dissociation kinetics of NKA-Bo (receptor EGFP-NK2R [1]; dissociation by non-fluorescent NKA in the presence of compound): does not alter the dissociation rate; amplitude of the rapid dissociation of NKA-Bo (% of total signal) (receptor EGFP-NK2R [1]; [4]): 66%; amplitude of the slow dissociation of NKA-Bo (% of total signal) (receptor EGFP-NK2R [1]; [4]): 33%
28% | 4% | – | – | – | N#CCN(Cc1ccccc1)Cc1ccc(Br)cc1 [CV1-85, [benzyl(4-bromobenzyl)amino]acetonitrile] | – | –
25% | 4% | – | – | – | N#CCN(Cc1ccccc1)Cc1cccc(Br)c1 [CV1-84, [benzyl(3-bromobenzyl)amino]acetonitrile] | – | –
– | – | 70% | > 100 µM | 10 to 30 µM | CCOC(=O)c1ccc(CN(CC#N)Cc2ccc3ccccc3c2)cc1 [G11, 4-[(Cyanomethyl-naphthalen-2-ylmethyl-amino)-methyl]-benzoic acid ethyl ester] | ns | –
26% | 7% | – | – | – | N#CCN(Cc1ccccc1)Cc1cccc(Cl)c1 [CV1-123] | – | –
– | – | ≧75% | > 100 µM | 1 to 20 µM | N#CCN(Cc1ccccc1)c1ncc(-c2ccccc2)s1 [compound 809, [benzyl(5-phenyl-1,3-thiazol-2-yl)amino]acetonitrile] | – | –
– | – | ≧90% | – | – | NC(=O)CN(Cc1ccccc1)Cc1ccc2ccccc2c1 [compound 807, 2-[benzyl(2-naphthylmethyl)amino]acetamide] | +? | –
– | – | 80% | > 100 µM | 50 to 80 µM | Clc1ccc(CNCc2ccc3ccccc3c2)cc1 [H6, (4-Chloro-benzyl)-naphthalen-2-ylmethyl-amine] | – | –
– | – | 90% | > 200 µM | 10 to 20 µM | COC(=O)CN(Cc1ccccc1)Cc1ccc2ccccc2c1 [compound 806, methyl [benzyl(2-naphtylmethyl)amino]acetate] | ns | –
– | – | – | – | – | CC(=O)NC1(c2ccccc2)CCN(CC[C@H](CN(C)C(=O)c2ccccc2)c2ccc(Cl)c(Cl)c2)CC1 [SR 48968, reference compound] | – | ratio of rapid/slow amplitudes of dissociation of NKA-Bo (receptor EGFP-NK2R [1]; each tested concentration of SR 48968): 45/55; relative amplitude of rapid dissociation (0.04 s^-1) of NKA-Bo (receptor EGFP-NK2R [1]; in the presence of 0.2, 1 and 5 nM of SR 48968): 45%
– | – | ≧70% | > 200 µM | 20 to 30 µM | C#CCN(Cc1ccccc1)Cc1ccc2ccccc2c1 [compound 808, N-benzyl-N-(2-naphthylmethyl)-N-prop-2-ynylamine] | – | –
25% | 16% | – | – | – | N#CCN(Cc1ccc2ccccc2c1)Cc1ccccc1Br [CV1-80, [(2-bromobenzyl)(2-naphthylmethyl)amino]acetonitrile] | – | –
22% | 6% | – | – | – | N#CCN(Cc1ccc(CCc2ccccc2)cc1)Cc1ccc2ccccc2c1 [CV1-135] | – | –
– | – | ≧80% | > 100 µM | 20 to 30 µM | N#CCN(Cc1ccc(N)cc1)Cc1cccc2ccccc12 [compound 804, [(4-aminobenzyl)(1-naphthylmethyl)amino]acetonitrile] | ns | –
– | – | ≧60% | 90 µM | ≥ 50 µM | O=C(CC(Nc1ncc(-c2ccccc2)s1)c1ccccc1)c1ccccc1 (stereo not drawn) [F7, 1,3-Diphenyl-3-(5-phenyl-thiazol-2-ylamino)-propan-1-one] | ns | –
22% | 15% | – | – | – | N#CCN(Cc1ccccc1)Cc1c[nH]c2ccccc12 [CV1-81] | – | –
– | – | ns | > 50 µM | – | Nc1ccc(CNCc2ccc3ccccc3c2)cc1 [H3, 4-{[(Naphthalen-2-ylmethyl)-amino]-methyl}-phenylamine] | ns | EC50 (μM): concentration of compound causing a 50% increase (relative to the maximum value) in the percentage of the amplitude of the rapid dissociation rate (receptor EGFP-NK2R [1]): ns
